Source: patent publication US20230348953A1, “HIGH THROUGHPUT, FLUORESCENCE-BASED ESTERASE ACTIVITY ASSAY FOR ASSESSING POLYSORBATE DEGRADATION RISK DURING BIOPHARMACEUTICAL DEVELOPMENT” (GENENTECH, INC., priority 2020, published 2023)
Entries after “also recorded” stand apart in the source; their conditions may differ.

Columns and labels:
[1] = system: purified protein samples (mAbs 1-3); experiment: Substrate specificity, purified protein samples; type: biochemical, CHO and E. coli; conditions: 0.5 mM substrate; mAbs 1-3 neat, 150-225 mg/ml
Procedure: (§1) The esterase activity assay monitors the conversion of the non-fluorescent substrates, 4-methylumbelliferyl fatty acid esters, to a fluorescent product, MU, through the cleavage of the ester bond. […] The concentration of each buffer component was selected based on in-house assay development studies (data not shown). A 50 mM tris chloride running buffer at pH 8.0 with 0.01% gum arabic was previously used to determine activity rates in a lipase and esterase activity assay (Nalder TD, et al., Biochimie. 2016;128-129:127-132).

PCL, LPLA2, PLBL2 = experiment: Substrate specificity, model enzymes; type: biochemical; conditions: 0.5 mM substrate; PCL and LPLA2 20 ng/ml, PLBL2 400 µg/ml
Procedure: as §1

[2] = system: residual hydrolytic HCPs in affinity chromatography purified mAb 2 sample (PS20 degradation); experiment: Orlistat incubation, PS20 degradation by FFA (lauric acid) release in mAb 2 sample; type: biochemical, CHO (Chinese Hamster Ovary); conditions: mAb2 sample, PS20 0.04%, 25° C. 12 days, relative to samples without orlistat
Procedure: (§2) To investigate the effect of orlistat on PS20 degradation, affinity chromatography purified samples of mAb 2 (28 mg/mL), mAb 6 (22 mg/ml) and mAb 7 (22 mg/ml) were incubated for 5 hours at room temperature in the presence of DMSO (10% v/v) with orlistat (0.2 µM and 20 µM) or without orlistat. The samples were then spiked with PS20 (0.04% v/v) and methionine (20 mg/ml) and incubated at 25° C. for 12 days. After incubation, the samples were analyzed for PS20 hydrolytic degradation by quantifying the FFA degradant (lauric acid) as previously described in detail (Cheng Y, et al., J Pharm Sci. 2019;108(9):2880-2886).

[3] = system: lysosomal phospholipase A2 (LPLA2); experiment: Orlistat inhibition, esterase activity assay with MU-C8; type: biochemical; conditions: orlistat 0.5, 1 and 10 µM; LPLA2 50 ng/ml; MU-C8 substrate
Procedure: (§3) The esterase activity assay monitors the conversion of the non-fluorescent substrates, 4-methylumbelliferyl fatty acid esters, to a fluorescent product, MU, through the cleavage of the ester bond. The reaction mixture contained 80 µl of reaction buffer (150 mM tris chloride pH 8.0, 0.25% (w/v) Triton X-100 and 0.125% (w/v) gum arabic), 10 µl substrate at 1 mM final concentration, and 10 µl model enzyme solution or protein samples. The concentration of each buffer component was selected based on in-house assay development studies (data not shown). […]
(§4) Model enzymes were diluted in water to the desired concentrations. […] The reaction was set up in 96-well plates and the increase of fluorescence signal (using excitation and emission wavelengths of 355 nm and 460 nm, respectively) was monitored every 10 minutes by incubating the reaction plates for two hours at 37° C. in a plate reader. Rate of production of MU, representing the total hydrolytic activity (from enzymatic and non-enzymatic hydrolysis), was derived from the slope of the fluorescence time course from 30 minutes to 120 minutes, and is denoted by the reaction raw rate (kraw). […]
(§5) Orlistat stock solution in DMSO was freshly prepared for each inhibition reaction. […] Rates were adjusted for background fluorescence as measured by the enzyme blank (negative control) wells. […]

[4] = molecular target: T1, Pseudomonas cepacia lipase (PCL) (Burkholderia cepacia, UniProt P22088); experiment: as above; type: biochemical; conditions: orlistat 0.5, 1 and 10 µM; PCL 50 ng/ml; MU-C8 substrate
T1 construct: purchased Sigma Aldrich
T1 sequence (P22088 45-364): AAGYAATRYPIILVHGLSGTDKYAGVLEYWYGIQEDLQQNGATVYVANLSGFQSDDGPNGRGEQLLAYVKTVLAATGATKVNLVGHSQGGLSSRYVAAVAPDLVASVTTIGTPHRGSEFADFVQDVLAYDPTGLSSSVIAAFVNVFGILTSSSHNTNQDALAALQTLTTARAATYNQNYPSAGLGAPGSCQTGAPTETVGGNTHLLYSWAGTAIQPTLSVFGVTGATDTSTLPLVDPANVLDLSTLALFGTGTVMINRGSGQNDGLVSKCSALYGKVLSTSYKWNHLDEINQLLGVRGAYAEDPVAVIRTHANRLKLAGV
Procedure: as §3, §4, §5

[5] = system: residual hydrolytic HCPs in affinity chromatography purified mAb 6 sample (PS20 degradation); experiment: Orlistat incubation, PS20 degradation by FFA (lauric acid) release in mAb 6 sample; type: biochemical, CHO (Chinese Hamster Ovary); conditions: mAb6 sample, PS20 0.04%, 25° C. 12 days, relative to samples without orlistat
Procedure: as §2

[6] = system: residual HCPs in purified mAb 1 sample; experiment: Orlistat inhibition, esterase activity assay with MU-C8; type: biochemical, CHO (Chinese Hamster Ovary); conditions: orlistat 0.5, 1 and 10 µM vs DMSO control; mAb 1 25 mg/ml during incubation; MU-C8 substrate
Procedure: as §3, §4, §5

[7] = system: residual hydrolytic HCPs in affinity chromatography purified mAb 7 sample (PS20 degradation); experiment: Orlistat incubation, PS20 degradation by FFA (lauric acid) release in mAb 7 sample; type: biochemical, CHO (Chinese Hamster Ovary); conditions: mAb7 sample, PS20 0.04%, 25° C. 12 days, relative to samples without orlistat
Procedure: as §2

[8] = molecular target: T2, carboxylesterase 1 (CES1) (Homo sapiens, UniProt P23141); conditions: cited from earlier work
T2 sequence (P23141 18-567): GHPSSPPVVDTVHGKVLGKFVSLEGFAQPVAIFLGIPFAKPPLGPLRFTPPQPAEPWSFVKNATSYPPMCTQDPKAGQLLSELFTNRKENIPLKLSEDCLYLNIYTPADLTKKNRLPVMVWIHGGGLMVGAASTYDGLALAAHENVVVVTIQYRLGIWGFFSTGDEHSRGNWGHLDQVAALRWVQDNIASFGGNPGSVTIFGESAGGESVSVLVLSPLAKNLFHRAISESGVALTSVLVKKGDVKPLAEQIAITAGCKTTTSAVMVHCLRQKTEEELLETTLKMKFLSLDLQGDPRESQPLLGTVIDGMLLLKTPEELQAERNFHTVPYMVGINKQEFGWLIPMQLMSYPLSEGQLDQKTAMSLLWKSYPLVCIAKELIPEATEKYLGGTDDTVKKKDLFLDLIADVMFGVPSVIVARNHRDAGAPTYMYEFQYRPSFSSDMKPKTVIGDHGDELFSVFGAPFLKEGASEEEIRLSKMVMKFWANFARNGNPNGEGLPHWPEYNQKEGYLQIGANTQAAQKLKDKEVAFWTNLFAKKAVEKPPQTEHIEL

carboxylesterase 2 = molecular target: T3, carboxylesterase 2 (Homo sapiens, UniProt O00748); conditions: cited from earlier work
T3 sequence (O00748 27-559): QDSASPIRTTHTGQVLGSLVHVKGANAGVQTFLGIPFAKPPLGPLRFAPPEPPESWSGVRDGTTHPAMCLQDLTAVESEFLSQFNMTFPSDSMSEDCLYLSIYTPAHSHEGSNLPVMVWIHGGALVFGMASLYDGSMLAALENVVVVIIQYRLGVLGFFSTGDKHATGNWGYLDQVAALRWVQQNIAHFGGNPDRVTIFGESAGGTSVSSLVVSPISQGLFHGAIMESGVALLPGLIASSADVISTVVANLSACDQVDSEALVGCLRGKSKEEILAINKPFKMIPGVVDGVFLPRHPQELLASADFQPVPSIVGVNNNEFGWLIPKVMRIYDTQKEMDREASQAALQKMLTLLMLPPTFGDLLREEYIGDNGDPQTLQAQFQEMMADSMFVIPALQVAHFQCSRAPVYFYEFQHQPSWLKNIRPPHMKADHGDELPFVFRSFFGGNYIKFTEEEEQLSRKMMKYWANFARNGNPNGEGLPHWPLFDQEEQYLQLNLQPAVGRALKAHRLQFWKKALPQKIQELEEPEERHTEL

With `CCCCCCCC/C=C\CCCCCCCC(=O)Oc1ccc2c(C)cc(=O)oc2c1` [MU-C18:1, 4-methylumbelliferyl oleate] the “activity of purified protein samples towards MU ester substrate” value [1] was “did not show activity”.

With `CCCCCCCC(=O)Oc1ccc2c(C)cc(=O)oc2c1` [MU-C8, 4-methylumbelliferyl caprylate] the “activity of purified protein samples towards MU ester substrate” value [1] was “most sensitivity” and the “hydrolysis of MU ester by model enzymes” value (PCL, LPLA2, PLBL2) was “hydrolyzed”.

With `CCCCCCCCCC(=O)Oc1ccc2c(C)cc(=O)oc2c1` [MU-C10, 4-methylumbelliferyl decanoate] the “hydrolysis of MU ester by model enzymes” value (PCL, LPLA2, PLBL2) was “hydrolyzed”.

For `CCCCCCCCCCC[C@@H](C[C@@H]1OC(=O)[C@H]1CCCCCC)OC(=O)[C@H](CC(C)C)NC=O` [orlistat, (S)-2-formylamino-4-methyl-pentanoic acid (S)-1-[[(2S,3S)-3-hexyl-4-oxo-2-oxetanyl]methyl]-dodecyl ester], the “Decrease in FFA Release Rate (%)” value ([2]; orlistat 0.2 µM) was 31%, the “Decrease in FFA Release Rate (%)” value ([2]; orlistat 20 µM) was 63% and the “inhibition of esterase activity” value [3] was “complete inhibition”. The “inhibition of esterase activity” value [4] was “complete inhibition”, the “Decrease in FFA Release Rate (%)” value ([5]; orlistat 0.2 µM) was 67% and the “Decrease in FFA Release Rate (%)” value ([5]; orlistat 20 µM) was 91%. The “reduction in esterase activity rate” value [6] was “dose-dependent reduction; also recorded: did not completely inhibit”, the “Decrease in FFA Release Rate (%)” value ([7]; orlistat 0.2 µM) was 39% and the “Decrease in FFA Release Rate (%)” value ([7]; orlistat 20 µM) was 74%. The “inhibition of carboxylesterase 1” value [8] was “lack of orlistat potency” and the “inhibition of carboxylesterase 2” value (carboxylesterase 2) was “significantly inhibited”.
